US20150259319A1, “AROMATIC ALKENOIC ACID DERIVATIVES” (Symrise AG, priority 2014, published 2015)

Test system: human neuroblastoma cells (SH-SY5Y)
Experiment: Serotonin release of SH-SY5Y cells after stimulation (Serotonin-ELISA, standardized to DNA content)
Settings: for Serotonin release [% control]: 3 minutes stimulation in Krebs-Ringer HEPES buffer
Text: After serotonin release, the cells are harvested with trypsin and, after a vitality test by trypan blue staining, sown in a defined number of cells in 35 mm cell culture dishes.
The cells are lysed with a sodium laurylsarcosinate-containing buffer and the DNA content is ascertained with the aid of a NanoQuant plate (Tecan, Ménnendorf, Switzerland) for standardization of the serotonin release.

SMILES	Serotonin release [% control] (0.01 μM compound)	Serotonin release [% control] (0.1 μM compound)	rise in serotonin release compared to the control (1 μM compound)	Serotonin release [% control] (1 μM compound)	Serotonin release [% control] (10 μM compound)
COC(=O)/C=C/C=C/CCc1ccc2c(c1)OCO2 [Compound 4, 2E,4E-Methyl 7-(1,3-benzodioxol-5-yl)hepta-2,4-dienoate]	129 % control	123 % control	240%	239 % control	171 % control
O=C(/C=C/C=C/CCc1ccc2c(c1)OCO2)N1CCCCC1 [Compound 3, 2E,4E-7-(1,3-Benzodioxol-5-yl)-1-(1-piperidyl)hepta-2,4-dien-1-one]	161 % control	141 % control	280%	283 % control	226 % control
